Consider 15 compounds from US20250170248A1, “SMARCA DEGRADERS AND USES THEREOF” (Kymera Therapeutics, Inc., priority 2021, published 2025).

Holding throughout (type): cell-based
In test [1] the target is T1, SMARCA2 (Homo sapiens, UniProt P51531). As to the kind of experiment: MSD SMARCA2 degradation in A549 cell line. The settings on record: for Dmax: A549, A549 cells; for Dmax / DC50: 24 h; for DC50 / SMARCA2 MSD A549 degradation 24 h: Average Dmax %: A549 cells; for DC50: read-out: SMARCA2 MSD A549 degradation 24 h: Average external-Abs DC50. In short, it runs like this:
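A549 cells treated 24 h with compound, 3-fold series from 1000 nM. Lysates captured on MSD plates and SMARCA2 quantified with anti-SMARCA2 and SULFO-TAG secondary antibodies (electrochemiluminescence). DC50 and Dmax (% degradation at 24 h) reported as letter bins.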

Another test concerns the target T2, SMARCA4 (Homo sapiens, UniProt P51532).
T2 construct: SMARCA2/SMARCA4 protein degradation selectivity in MV4-11 cells; endogenous in cells; host or cells: MV4-11
Briefly: SMARCA4 Western blot degradation in MV4-11 cells. The following applies: for Dmax: MV4-11, MV4-11 cells, read-out: SMARCA4 MSD MV411 degradation 24 h: average Dmax %; for Dmax / DC50: 24 h; for DC50 / SMARCA4 MSD MV411 degradation 24 h: average Dmax %: MV4-11 cells; for DC50: read-out: SMARCA4 MSD MV411 degradation 24 h: Mean external-Abs DC50. In short, it runs like this: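 24 h compound exposure, MV4-11; RIPA lysates → SDS-PAGE → NC membrane; anti-SMARCA2/BRM, anti-BRG1, β-actin loading control; LI-COR fluorescence read. DC50 and Dmax at 24 h reported as letter bins.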

The target in test [2] is T1, SMARCA2. As to the kind of experiment: SMARCA2 Western blot degradation in MV4-11 cells. Also noted: SMARCA2/SMARCA4 protein degradation selectivity in MV4-11 cells; endogenous in cells; host or cells: MV4-11. The following applies: for Dmax: MV4-11, MV4-11 cells, read-out: SMARCA2 MSD MV411 degradation 24 h: average Dmax %; for Dmax / DC50 / SMARCA2 MSD MV411 degradation 24 h: average Dmax %: 24 h; for DC50 / Selectivity in MV411 / SMARCA2 MSD MV411 degradation 24 h: average Dmax %: MV4-11 cells; for DC50: read-out: SMARCA2 MSD MV411 degradation 24 h: Mean external-Abs DC50; for Selectivity in MV411: SMARCA2/4 selectivity. A general note: Immunoblotting shows a protein as a band on a membrane.

Usually Dmax stands for the largest share of the target that was removed. In general, DC50 refers to the concentration at which degradation of the target reaches its halfway point.

The structures appear in SMILES notation.

T2 sequence (P51532 whole entry): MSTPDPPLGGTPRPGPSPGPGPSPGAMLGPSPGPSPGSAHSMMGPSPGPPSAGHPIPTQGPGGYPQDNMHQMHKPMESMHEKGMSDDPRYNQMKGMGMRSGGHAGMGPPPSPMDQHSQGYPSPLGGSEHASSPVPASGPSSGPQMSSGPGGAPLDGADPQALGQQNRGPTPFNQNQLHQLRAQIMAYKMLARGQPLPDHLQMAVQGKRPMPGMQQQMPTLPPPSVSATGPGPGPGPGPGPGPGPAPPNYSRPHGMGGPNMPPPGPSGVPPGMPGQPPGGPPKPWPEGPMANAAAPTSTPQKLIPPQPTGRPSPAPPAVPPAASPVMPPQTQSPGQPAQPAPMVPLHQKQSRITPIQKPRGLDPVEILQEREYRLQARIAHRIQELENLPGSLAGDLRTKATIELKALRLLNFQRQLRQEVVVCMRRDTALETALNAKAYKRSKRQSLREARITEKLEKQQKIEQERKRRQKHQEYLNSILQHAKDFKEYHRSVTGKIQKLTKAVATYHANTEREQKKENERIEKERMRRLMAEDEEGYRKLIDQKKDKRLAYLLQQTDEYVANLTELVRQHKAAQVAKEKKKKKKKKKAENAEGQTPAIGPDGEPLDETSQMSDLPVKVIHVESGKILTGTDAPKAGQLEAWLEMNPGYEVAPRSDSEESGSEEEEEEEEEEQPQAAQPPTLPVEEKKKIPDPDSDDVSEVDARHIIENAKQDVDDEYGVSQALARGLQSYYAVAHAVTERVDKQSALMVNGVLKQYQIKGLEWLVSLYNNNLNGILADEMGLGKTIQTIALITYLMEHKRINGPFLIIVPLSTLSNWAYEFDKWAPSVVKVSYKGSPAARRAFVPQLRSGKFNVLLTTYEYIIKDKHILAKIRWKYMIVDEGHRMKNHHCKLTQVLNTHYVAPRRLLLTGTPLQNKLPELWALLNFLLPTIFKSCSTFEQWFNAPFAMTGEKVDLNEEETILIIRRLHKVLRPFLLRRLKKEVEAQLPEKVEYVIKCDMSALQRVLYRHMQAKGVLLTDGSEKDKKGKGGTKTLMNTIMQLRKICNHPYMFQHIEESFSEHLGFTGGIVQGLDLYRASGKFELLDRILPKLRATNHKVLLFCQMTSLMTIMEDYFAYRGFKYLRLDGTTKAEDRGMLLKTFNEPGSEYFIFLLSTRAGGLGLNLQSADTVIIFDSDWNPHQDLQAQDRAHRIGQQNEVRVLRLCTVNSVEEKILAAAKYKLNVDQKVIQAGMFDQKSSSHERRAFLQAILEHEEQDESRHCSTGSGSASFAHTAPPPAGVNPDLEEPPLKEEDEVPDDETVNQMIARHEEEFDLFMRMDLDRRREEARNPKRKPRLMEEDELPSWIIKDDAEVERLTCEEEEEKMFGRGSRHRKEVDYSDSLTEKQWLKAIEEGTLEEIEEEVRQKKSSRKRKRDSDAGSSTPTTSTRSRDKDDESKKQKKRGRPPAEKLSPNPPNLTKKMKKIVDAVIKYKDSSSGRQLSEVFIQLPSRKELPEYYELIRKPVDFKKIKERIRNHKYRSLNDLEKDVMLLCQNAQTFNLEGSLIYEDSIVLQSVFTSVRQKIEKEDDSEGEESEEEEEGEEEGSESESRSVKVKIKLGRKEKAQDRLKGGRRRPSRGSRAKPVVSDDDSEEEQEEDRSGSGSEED
T1 sequence (P51531 whole entry): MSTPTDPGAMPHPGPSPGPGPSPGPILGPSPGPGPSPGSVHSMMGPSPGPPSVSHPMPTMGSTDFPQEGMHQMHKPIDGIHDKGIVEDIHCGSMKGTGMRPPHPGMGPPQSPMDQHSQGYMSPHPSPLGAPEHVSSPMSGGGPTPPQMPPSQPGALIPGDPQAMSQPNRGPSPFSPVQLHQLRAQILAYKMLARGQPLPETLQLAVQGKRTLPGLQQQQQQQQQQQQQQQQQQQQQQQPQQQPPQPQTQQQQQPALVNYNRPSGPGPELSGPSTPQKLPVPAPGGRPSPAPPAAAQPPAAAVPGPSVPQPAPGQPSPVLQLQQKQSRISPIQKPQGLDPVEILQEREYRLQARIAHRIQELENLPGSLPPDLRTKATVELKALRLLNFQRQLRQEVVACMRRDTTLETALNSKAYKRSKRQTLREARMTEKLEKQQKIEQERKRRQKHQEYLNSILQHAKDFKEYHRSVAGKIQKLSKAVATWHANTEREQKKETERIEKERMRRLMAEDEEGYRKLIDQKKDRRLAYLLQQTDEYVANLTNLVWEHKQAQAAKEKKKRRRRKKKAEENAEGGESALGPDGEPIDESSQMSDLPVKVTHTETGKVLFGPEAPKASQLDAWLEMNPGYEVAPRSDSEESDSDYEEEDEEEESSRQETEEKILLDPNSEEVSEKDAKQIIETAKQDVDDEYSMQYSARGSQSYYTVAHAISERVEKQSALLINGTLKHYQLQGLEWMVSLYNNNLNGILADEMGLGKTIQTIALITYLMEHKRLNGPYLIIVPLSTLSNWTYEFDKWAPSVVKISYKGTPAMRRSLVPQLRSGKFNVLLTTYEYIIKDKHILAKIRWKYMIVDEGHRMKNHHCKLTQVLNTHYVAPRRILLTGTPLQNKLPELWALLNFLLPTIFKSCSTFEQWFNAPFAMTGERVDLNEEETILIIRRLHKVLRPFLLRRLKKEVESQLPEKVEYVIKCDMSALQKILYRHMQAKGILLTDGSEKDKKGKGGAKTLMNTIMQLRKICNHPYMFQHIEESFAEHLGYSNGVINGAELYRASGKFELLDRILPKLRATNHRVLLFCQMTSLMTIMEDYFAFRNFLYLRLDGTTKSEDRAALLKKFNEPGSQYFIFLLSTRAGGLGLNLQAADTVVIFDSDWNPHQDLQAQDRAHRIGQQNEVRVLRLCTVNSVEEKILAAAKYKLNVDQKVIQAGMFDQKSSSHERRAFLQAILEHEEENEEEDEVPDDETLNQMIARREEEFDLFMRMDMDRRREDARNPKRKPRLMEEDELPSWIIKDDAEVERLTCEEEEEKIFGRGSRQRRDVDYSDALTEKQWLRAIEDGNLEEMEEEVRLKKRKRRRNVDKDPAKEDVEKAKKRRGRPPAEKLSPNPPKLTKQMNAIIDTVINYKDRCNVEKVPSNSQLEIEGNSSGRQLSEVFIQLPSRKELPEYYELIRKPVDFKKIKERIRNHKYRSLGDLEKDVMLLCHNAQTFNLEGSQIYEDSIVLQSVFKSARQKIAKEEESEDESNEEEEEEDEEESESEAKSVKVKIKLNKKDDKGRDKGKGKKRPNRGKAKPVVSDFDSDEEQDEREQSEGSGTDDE

For the compound `C#Cc1ccc([C@H](C)NC(=O)[C@@H]2C[C@@H](O)CN2C(=O)[C@@H](c2cc(OCCN3CCN4c5cc(-c6ccccc6O)nnc5NC[C@H]4C3)no2)C(C)C)cc1` (single isomer, unassigned) [I-273], at SMARCA2 [1], the Dmax is more than 90% and the DC50 is more than 100 nM. At SMARCA4, the Dmax lay within 50 to 70% and the DC50 is more than 100 nM. Moreover, on SMARCA2 [2], the greatest degradation seen (Dmax) was more than 90%, the DC50 fell in the range of 1 to 10 nM and the “Selectivity in MV411” value was “C (C (10-100 fold))”.

Take `C#Cc1ccc([C@H](C)NC(=O)[C@@H]2C[C@@H](O)CN2C(=O)[C@H](c2cc(OCCN3CCC(N4CCC(N5CCC(CN6CCN7c8cc(-c9ccccc9O)nnc8NC[C@H]7C6)CC5)CC4)CC3)no2)C(C)C)cc1` (single isomer, unassigned) [I-333]: the Dmax was more than 90% at SMARCA2 [1], 70 to 90% at SMARCA4 and more than 90% on SMARCA2 [2]. Further, the results for the DC50 on SMARCA2 [1], at SMARCA4 and at SMARCA2 [2] were 10 to 50 nM, 10 to 100 nM and less than 1 nM, respectively. Further, the “Selectivity in MV411” value on SMARCA2 [2] is “C (C (10-100 fold))”.

As for `Cc1ncsc1-c1ccc(CNC(=O)[C@@H]2C[C@@H](O)CN2C(=O)[C@@H](NC(=O)[C@H]2CC3(C2)C[C@H](N2CCC(N4CCC(c5ccc6[nH]c7nnc(-c8ccccc8O)cc7c6c5)CC4)CC2)C3)C(C)(C)C)cc1` (single isomer, unassigned) [I-29], at SMARCA2 [1], the “SMARCA2 MSD A549 degradation 24 h: Average Dmax %” value is “C (C (50-70% degradation))” and the DC50 was more than 100 nM. Further, on SMARCA4, the “SMARCA4 MSD MV411 degradation 24 h: average Dmax %” value is reported as “D (D (<50% degradation))” and the DC50 is more than 100 nM. Moreover, at SMARCA2 [2], the “SMARCA2 MSD MV411 degradation 24 h: average Dmax %” value was “C (C (50-70% degradation))”, the DC50 lay within 10 to 100 nM and the “Selectivity in MV411” value is reported as “B (B (>100-500 fold))”.

Consider `C#Cc1ccc([C@H](C)NC(=O)[C@@H]2C[C@@H](O)CN2C(=O)[C@@H](OC(=O)N2CC3(CC(N4CCC(c5cnc(N6CCc7[nH]c8nnc(-c9ccccc9O)cc8c7[C@H]6C)nc5)CC4)C3)C2)C(C)(C)C)cc1` [I-150], for which, on SMARCA2 [1], the Dmax was more than 90% and the DC50 lay within 10 to 50 nM. For the same compound, at SMARCA4, the Dmax lay within 70 to 90% and the DC50 is more than 100 nM. At SMARCA2 [2], the Dmax lay within 70 to 90%, the DC50 fell in the range of 1 to 10 nM and the “Selectivity in MV411” value was “C (C (10-100 fold))”.

Turning to `Cc1ncsc1-c1ccc(CNC(=O)[C@@H]2C[C@@H](O)CN2C(=O)C(c2cc(OCCCCN3CCC(c4cnc(N5CCN6c7cc(-c8ccccc8O)nnc7NC[C@H]6C5)nc4)CC3)no2)C(C)C)cc1` (stereo partly drawn) [I-50, (2S,4R)-4-hydroxy-1-(2-(3-(4-(4-(2-((S)-2-(2-hydroxyphenyl)-6a,7,9,10-tetrahydro-5H-pyrazino[1′,2′:4,5]pyrazino[2,3-c]pyridazin-8(6H)-yl)pyrimidin-5-yl)piperidin-1-yl)butoxy)isoxazol-5-yl)-3-methylbutanoyl)-N-(4-(4-methylthiazol-5-yl)benzyl)pyrrolidine-2-carboxamide], at SMARCA2 [1], the Dmax was more than 90% and the half-maximal degradation concentration (DC50) is less than 10 nM. For the same compound, at SMARCA4, the Dmax is more than 90% and the DC50 was 1 to 10 nM. Also, at SMARCA2 [2], the greatest degradation seen (Dmax) is more than 90%, the DC50 was less than 1 nM and the “Selectivity in MV411” value is reported as “D (D (<10 fold))”.

Turning to `C#Cc1ccc([C@H](C)NC(=O)[C@@H]2C[C@@H](O)CN2C(=O)[C@@H](NC(=O)N2CC3(CC(N4CCC(c5cnc(N6CCc7[nH]c8nnc(-c9ccccc9O)cc8c7[C@H]6C)nc5)CC4)C3)C2)C(C)(C)CCO)cc1` [I-259], on SMARCA2 [1], the Dmax was more than 90% and the DC50 is less than 10 nM. Further, at SMARCA4, the Dmax is less than 50% and the half-maximal degradation concentration (DC50) was more than 100 nM. At SMARCA2 [2], the Dmax lay within 70 to 90%, the DC50 was 1 to 10 nM and the “Selectivity in MV411” value is reported as “A (A (>500 fold))”.

Take `C#Cc1ccc(CNC(=O)[C@@H]2C[C@@H](O)CN2C(=O)[C@@H](NC(=O)N2CC3(CC(N4CCC(c5cnc(N6CCc7[nH]c8nnc(-c9ccccc9O)cc8c7[C@H]6C)nc5)CC4)C3)C2)C(C)(C)C)c(C)c1` [I-270]: the Dmax at SMARCA2 [1], at SMARCA4 and on SMARCA2 [2] was more than 90% in each case. Besides, the DC50 is less than 10 nM at SMARCA2 [1], more than 100 nM on SMARCA4 and 1 to 10 nM on SMARCA2 [2]. Also, the “Selectivity in MV411” value on SMARCA2 [2] is listed as “C (C (10-100 fold))”.

`C#Cc1ccc(CNC(=O)[C@@H]2C[C@@H](O)CN2C(=O)[C@@H](NC(=O)N2CCN(C[C@@H]3CCN(c4cnc(N5CCc6[nH]c7nnc(-c8ccccc8O)cc7c6[C@H]5C)nc4)C3)CC2)C(C)(C)C)cc1` (single isomer, unassigned) [I-161]: on SMARCA2 [1], the Dmax is more than 90% and the DC50 is more than 100 nM. Besides, at SMARCA4, the Dmax was 50 to 70% and the half-maximal degradation concentration (DC50) was more than 100 nM. For the same compound, at SMARCA2 [2], the greatest degradation seen (Dmax) fell in the range of 50 to 70%, the DC50 lay within 10 to 100 nM and the “Selectivity in MV411” value is “C (C (10-100 fold))”.

For `Cc1ncsc1-c1ccc(CNC(=O)[C@@H]2C[C@@H](O)CN2C(=O)[C@@H](NC(=O)N2CC3(CCC(N4CCC(c5cnc(N6CCc7[nH]c8nnc(-c9ccccc9O)cc8c7C6C)nc5)CC4)CC3)C2)C(C)(C)C)cc1` (stereo partly drawn) [I-62], on SMARCA2 [1], the maximal degradation (Dmax) fell in the range of 70 to 90% and the DC50 was more than 100 nM. Further, on SMARCA4, the Dmax was less than 50% and the 50% degradation concentration (DC50) was more than 100 nM. For the same compound, at SMARCA2 [2], the Dmax was less than 50%, the DC50 is more than 100 nM and the “Selectivity in MV411” value was “C (C (10-100 fold))”.

On to `C#Cc1ccc(CNC(=O)[C@@H]2C[C@@H](O)CN2C(=O)[C@@H](NC(=O)N2CC3(CC(N4CCC(c5cnc(N6CCc7[nH]c8nnc(-c9ccccc9O)cc8c7[C@H]6C)nc5)CC4)C3)C2)C(C)(C)CCN2CCNCC2)cc1` [I-340], for which, on SMARCA2 [1], the greatest degradation seen (Dmax) is 50 to 70% and the DC50 is more than 100 nM. At SMARCA4, the Dmax was less than 50% and the DC50 is more than 100 nM. For the same compound, on SMARCA2 [2], the Dmax was less than 50%, the DC50 is more than 100 nM and the “Selectivity in MV411” value is “C (C (10-100 fold))”.

Take `Cc1ncsc1-c1ccc(CNC(=O)[C@@H]2C[C@@H](O)CN2C(=O)[C@@H](NC(=O)[C@H]2CC[C@@H](c3ccc(-c4cnc(N5CCN6c7cc(-c8ccccc8O)nnc7NC[C@H]6C5)nc4)cc3)CC2)C(C)(C)C)cc1` [I-86]: the Dmax on SMARCA2 [1], on SMARCA4 and on SMARCA2 [2] was more than 90% each time. Further, the DC50 at SMARCA2 [1] is less than 10 nM; on SMARCA4, 1 to 10 nM; on SMARCA2 [2] it was less than 1 nM. Besides, at SMARCA2 [2], the “Selectivity in MV411” value is on record as “C (C (10-100 fold))”.

`C#Cc1ccc(CNC(=O)[C@@H]2C[C@@H](O)CN2C(=O)[C@@H](NC(=O)N2CC3(CC(N4CCC(c5cnc(N6CCc7[nH]c8nnc(-c9ccccc9O)cc8c7[C@H]6C)nc5)CC4)C3)C2)C(C)(C)C)cc1OC` [I-319]: the Dmax at SMARCA2 [1] is more than 90%; at SMARCA4 it was 50 to 70%; at SMARCA2 [2] it was 70 to 90%. Moreover, the DC50 was 10 to 50 nM on SMARCA2 [1], more than 100 nM on SMARCA4 and 1 to 10 nM on SMARCA2 [2]. Besides, the “Selectivity in MV411” value on SMARCA2 [2] is recorded as “B (B (>100-500 fold))”.

For the compound `C#Cc1ccc(CNC(=O)[C@@H]2C[C@@H](O)CN2C(=O)[C@@H](NC(=O)[C@H]2CCC3(CC2)C[C@H](N2CCC(N4CCC(N5CCN6c7cc(-c8ccccc8O)nnc7NC[C@H]6C5)CC4)CC2)C3)C(C)(C)C)c(Cl)c1` (stereo partly drawn) [I-222], at SMARCA2 [1], the “SMARCA2 MSD A549 degradation 24 h: Average Dmax %” value is “A (A (>90% degradation))” and the DC50 was more than 100 nM. Besides, on SMARCA4, the “SMARCA4 MSD MV411 degradation 24 h: average Dmax %” value is listed as “D (D (<50% degradation))” and the DC50 is more than 100 nM. On SMARCA2 [2], the “SMARCA2 MSD MV411 degradation 24 h: average Dmax %” value is listed as “B (B (>70-90% degradation))”, the DC50 fell in the range of 10 to 100 nM and the “Selectivity in MV411” value is “B (B (>100-500 fold))”.

On to `C#Cc1ccc(CNC(=O)[C@@H]2C[C@@H](O)CN2C(=O)[C@@H](NC(=O)N2CC3(CC(N4CCC([C@H]5CC[C@H](N6CCc7[nH]c8nnc(-c9ccccc9O)cc8c7[C@H]6C)CC5)CC4)C3)C2)C(C)(C)C)cc1` [I-184], for which the Dmax was more than 90% on SMARCA2 [1], less than 50% on SMARCA4 and less than 50% on SMARCA2 [2]. Further, the DC50 at SMARCA2 [1], on SMARCA4 and at SMARCA2 [2] was more than 100 nM each time. On SMARCA2 [2], the “Selectivity in MV411” value is listed as “C (C (10-100 fold))”.

In the case of `C#CCOc1cc(C(C(=O)N2C[C@H](O)C[C@H]2C(=O)NCc2ccc(-c3scnc3C)cc2O[C@H]2CC[C@H](N3CCC(c4cnc(N5CCc6[nH]c7nnc(-c8ccccc8O)cc7c6[C@H]5C)nc4)CC3)CC2)C(C)C)on1` (single isomer, unassigned) [I-38], at SMARCA2 [1], the greatest degradation seen (Dmax) was more than 90% and the 50% degradation concentration (DC50) lay in the range of 10 to 50 nM. Besides, on SMARCA4, the Dmax is more than 90% and the DC50 lay within 10 to 100 nM. Moreover, at SMARCA2 [2], the maximal degradation (Dmax) was more than 90%, the DC50 was less than 1 nM and the “Selectivity in MV411” value is listed as “C (C (10-100 fold))”.
